The text below walks through data of patent US20260165983A1, “VITAMIN A FORMULATION” (ADISSEO FRANCE S.A.S., priority 2020, published 2026).

The structures appear in SMILES notation.

The nature of data set [1]: Dynamic oxidation test by DSC (differential scanning calorimeter) under oxygen flow. Format: physicochemical. Conditions: oxygen flow 50 ml/min; vitamin A acetate with 20% by weight antioxidant; higher temperature = higher antioxidant power. How it is done:
(§1) The antioxidant power measurement methods used in the examples for antioxidant and vitamin A (as vitamin A acetate) mixtures are shown below.
1) Dynamic Oxidation Test by DSC (Differential Scanning Calorimeter)
It is carried out under oxygen flow (50 ml/min) then the temperature is raised to a temperature above the melting point of vitamin A (i.e. above 60° C.).
The oxidation corresponds to an exothermic phenomenon which occurs at a given temperature. For BHT, it occurs at 153° C. The higher the oxidation temperature, the higher the antioxidant power.
All the samples having a temperature greater than or equal to 120° C. will be retained for a much longer Oxipres test.
(Differential scanning calorimetry records heat flow against a reference as temperature is scanned.)

A short description of data set [2]: Oxipres test (oxygen consumption under O2 pressure). Type of data set: physicochemical.
Source text: as §1
This test consists of putting the samples under O2 pressure at a given temperature. The method allows determining the kinetics of oxygen consumption, expressed by a variation of O2 (ΔP in bars), this variation being all the smaller as the antioxidant power is high.

In the case of `Cc1cc(C(C)(C)C)c(O)c(C(C)(C)C)c1` [BHT, 2,6-di-tert-butyl-4-methyl-phenol, reference compound], the “DSC DYN Onset (oxidation temperature)” value in data set [1] was 153 °C.
As to `CC(=O)OC/C=C(C)/C=C/C=C(C)/C=C/C1=C(C)CCCC1(C)C` [Sample 1, vitamin A acetate], the “DSC DYN Onset (oxidation temperature)” value in data set [1] was determined as 60 °C. Further, the “Oxipres Time” value in data set [2] (under O2 pressure at a given temperature) is listed as 0 h. The “Oxipres ΔP (variation of O2)” value in data set [2] (under O2 pressure, smaller ΔP = higher antioxidant power) turned out to be 5.0 Bars.
